Literature values as cited in article PMC8050614 (Journal of bone and mineral research : the official journal …, 2019).

Legend:
young wild-type mice = settings: 8 weeks of treatment
wild-type mice = settings: injection at 50 nmol/kg

NCCCC(O)(P(=O)(O)O)P(=O)(O)O [alendronate]
osteoclast size and/or number (young wild-type mice): increase | serum CTX1 (young wild-type mice): decrease

hPTH(1–34)NH2
hypercalcemic response (wild-type mice): frank hypercalcemic response
